Results on 1 molecule are retold here after patent publication US12337003B2, “Pharmaceutical compositions for combination therapy” (Intercept Pharmaceuticals, Inc., priority 2015, dated 2025).

In the test the test system is APOE*3Leiden.CETP transgenic mice on high fat diet. Kind of test: Diet induced NASH in APOE*3Leiden.CETP mice, hepatic inflammation score. It counts as in vivo. Here is the method:
This experiment was performed to evaluate the effects of OCA and fenofibrate, alone or in combination, on the development of diet induced NASH and liver fibrosis in APOE*3Leiden.CETP transgenic mice. Hepatic gene expression profiling and subsequent pathway analysis were performed to determine whether the combination regulates novel genes not regulated by either monotherapy treatment, and/or more strongly regulates genes also impacted by the monotherapy.
Male APOE*3Leiden.CETP transgenic mice (9-21 weeks old) were obtained and housed 2-5 mice per cage. The mice were fed a high fat diet containing 24% lard and 1% (w/w) cholesterol. The run in period was 15 weeks on the high fat diet. At week 16, mice were matched based on age, body weight, plasma cholesterol and triglycerides after 4 h fasting.
• Mice (n=15) were fed a high fat diet during the run in weeks 0 to 14. Group 2: HFC control group • Mice (n=15) were fed a high fat diet from weeks 0 to 24. Group 3: HFC+OCA • Mice (n=15) were fed a high fat diet supplemented with OCA at a dose of 10 mg/kg once daily from week 16 to 24. Group 4: HFC+low dose fenofibrate • Mice (n=15) were fed a high fat diet supplemented with fenofibrate at a dose of 10 mg/kg once daily from week 16 to 24. Group 5: HFC+high dose fenofibrate • Mice (n=15) were fed a high fat diet supplemented with fenofibrate at a dose of 40 mg/kg once daily from week 16 to 24. Group 6: HFC+OCA+low dose fenofibrate • Mice (n=15) were fed a high fat diet supplemented with OCA at a dose of 10 mg/kg once daily and fenofibrate at a dose of 10 mg/kg once daily from week 16 to 24. Group 7: HFC+OCA+high dose fenofibrate • Mice (n=15) were fed a high fat diet supplemented with OCA at a dose of 10 mg/kg once daily and fenofibrate at a dose of 40 mg/kg once daily from week 16 to 24. Group 8: Chow control group • Mice (n=8) were feed chow from week 0 to 24. Study Design
Mice were fed a high fat chow (HFC) diet for […]. After 15 weeks on the HFC diet, HFC mice were matched into 7 groups based on age, body weight, plasma cholesterol and triglycerides after 4 h fasting. Mice were treated with of OCA and fenofibrate, alone or in combination beginning at week 15 and sacrificed at week 25 in an unfasted state. One week before sacrifice, mice were labeled with D20, by i.p. injection of a bolus of D20 and subsequent addition of 4% D20 to the drinking water. Plasma (EDTA) was obtained by heart puncture and stored at −70° C. The liver was weighed and 4 pieces of liver were isolated: 1 piece (medial lobe) was fixed in 10% formalin (for NASH and fibrosis histology) and 3 pieces (sinister lobe) were snap-frozen in liquid N2 and stored individually at −70° C.
Inflammation is a key feature of NASH. Inflammation was categorized according to the procedure by Liang et al., PlosOne 2014 Dec. 9(12) and scored by quantitatively analyzing the number of inflammatory cells aggregates. In particular, the level of inflammation was evaluated by counting the number of inflammatory foci per field using a 100× magnification (view size of 3.1 mm2; average of five different fields).

Turning to `CC[C@H]1[C@@H](O)[C@@H]2[C@H](CC[C@]3(C)[C@@H]([C@H](C)CCC(=O)O)CC[C@@H]23)[C@@]2(C)CC[C@@H](O)C[C@@H]12` [OCA, 3α,7α-dihydroxy-6α-ethyl-5β-cholan-24-oic acid], where the note is “OCA 10 mg/kg and/or low dose fenofibrate 10 mg/kg, in high fat diet”, the “Inflammation (# of inflammatory cell foci)” value came to 29.1 ± 22.7. Besides, the “effect on number of inflammatory cell foci” value (after 10 weeks, OCA 10 mg/kg and/or fenofibrate 10 mg/kg, relative to vehicle control) was “neither OCA (10 mg/kg) nor fenofibrate (10 mg/kg) reduced”.
